Tests used:
[1] = target: Cholecystokinin receptor type A (Homo sapiens) (UniProt P32238); experiment: CCK1 (CCKA) (h) Eurofins-Cerep binding assay; conditions: filed as agonist, Compound concentration 10.0 uM
[2] = target: T1, Muscarinic acetylcholine receptor M4 (Homo sapiens) (UniProt P08173); experiment: M4 (h) Eurofins-Cerep binding assay; design: ligand concentration 0.2 nM; conditions: filed as antagonist, Compound concentration 10.0 uM
T1 sequence (whole entry): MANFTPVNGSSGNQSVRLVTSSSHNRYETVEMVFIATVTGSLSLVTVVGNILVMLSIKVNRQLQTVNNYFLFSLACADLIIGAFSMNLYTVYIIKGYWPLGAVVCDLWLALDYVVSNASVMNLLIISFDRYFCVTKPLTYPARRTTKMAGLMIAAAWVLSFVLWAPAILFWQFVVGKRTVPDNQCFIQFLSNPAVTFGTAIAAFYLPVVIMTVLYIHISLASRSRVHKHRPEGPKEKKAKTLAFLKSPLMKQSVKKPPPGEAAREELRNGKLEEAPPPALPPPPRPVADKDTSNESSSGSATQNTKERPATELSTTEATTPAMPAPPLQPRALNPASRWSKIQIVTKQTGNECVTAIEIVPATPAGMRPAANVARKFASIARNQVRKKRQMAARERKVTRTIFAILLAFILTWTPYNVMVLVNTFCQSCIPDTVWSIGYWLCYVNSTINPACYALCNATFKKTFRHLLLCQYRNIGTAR

[3] = target: Glutamate NMDA receptor (Rattus norvegicus) (UniProt P35439+Q00959+Q00960+Q00961+Q62645+Q8VHN2+Q9R1M7); experiment: PCP Eurofins-Cerep binding assay; type: protein-complex assay; design: ligand concentration 10 nM; conditions: filed as antagonist, Compound concentration 10.0 uM
[4] = system: Tyrosine-protein kinase ABL1 (Homo sapiens), P00519 [T315I]; conditions: Compound concentration 1000.0 nM
[5] = target: RAC-beta serine/threonine-protein kinase (Homo sapiens) (UniProt P31751); conditions: Compound concentration 1000.0 nM
[6] = target: 5'-AMP-activated protein kinase catalytic subunit alpha-2 (Homo sapiens) (UniProt P54646); conditions: Compound concentration 1000.0 nM
[7] = target: Bone morphogenetic protein receptor type-1B (Homo sapiens) (UniProt O00238); conditions: Compound concentration 1000.0 nM
[8] = target: Calcium/calmodulin-dependent protein kinase type 1G (Homo sapiens) (UniProt Q96NX5); conditions: Compound concentration 1000.0 nM
[9] = target: Calcium/calmodulin-dependent protein kinase type II subunit delta (Homo sapiens) (UniProt Q13557); conditions: Compound concentration 1000.0 nM
[10] = target: Peripheral plasma membrane protein CASK (Homo sapiens) (UniProt O14936); conditions: Compound concentration 1000.0 nM
[11] = target: Cyclin-dependent kinase 19 (Homo sapiens) (UniProt Q9BWU1); conditions: Compound concentration 1000.0 nM
[12] = target: Cyclin-dependent kinase 4 (Homo sapiens) (UniProt P11802); conditions: Compound concentration 1000.0 nM
[13] = target: Cyclin-dependent kinase-like 1 (Homo sapiens) (UniProt Q00532); conditions: Compound concentration 1000.0 nM
[14] = target: Cyclin-dependent kinase-like 2 (Homo sapiens) (UniProt Q92772); conditions: Compound concentration 1000.0 nM
[15] = target: Serine/threonine-protein kinase Chk2 (Homo sapiens) (UniProt O96017); conditions: Compound concentration 1000.0 nM
[16] = target: Dual specificity protein kinase CLK1 (Homo sapiens) (UniProt P49759); conditions: Compound concentration 1000.0 nM
[17] = target: Casein kinase II subunit alpha (Homo sapiens) (UniProt P68400); conditions: Compound concentration 1000.0 nM
[18] = target: Casein kinase II subunit alpha' (Homo sapiens) (UniProt P19784); conditions: Compound concentration 1000.0 nM
[19] = target: Ephrin type-A receptor 4 (Homo sapiens) (UniProt P54764); conditions: Compound concentration 1000.0 nM
[20] = target: Vascular endothelial growth factor receptor 1 (Homo sapiens) (UniProt P17948); conditions: Compound concentration 1000.0 nM
[21] = system: Receptor-type tyrosine-protein kinase FLT3 (Homo sapiens), P36888 [D835Y]; conditions: Compound concentration 1000.0 nM
[22] = system: Receptor-type tyrosine-protein kinase FLT3 (Homo sapiens), P36888 [UNDEFINED MUTATION]; conditions: Compound concentration 1000.0 nM
[23] = system: Receptor-type tyrosine-protein kinase FLT3 (Homo sapiens), P36888 [N841I]; conditions: Compound concentration 1000.0 nM
[24] = target: Serine/threonine-protein kinase haspin (Homo sapiens) (UniProt Q8TF76); conditions: Compound concentration 1000.0 nM
[25] = system: Hepatocyte growth factor receptor (Homo sapiens), P08581 [M1250T]; conditions: Compound concentration 1000.0 nM
[26] = target: Serine/threonine-protein kinase 26 (Homo sapiens) (UniProt Q9P289); conditions: Compound concentration 1000.0 nM
[27] = target: Myosin light chain kinase family member 4 (Homo sapiens) (UniProt Q86YV6); conditions: Compound concentration 1000.0 nM
[28] = target: Myosin-IIIb (Homo sapiens) (UniProt Q8WXR4); conditions: Compound concentration 1000.0 nM
[29] = target: Serine/threonine-protein kinase PLK3 (Homo sapiens) (UniProt Q9H4B4); conditions: Compound concentration 1000.0 nM
[30] = target: Serine/threonine-protein kinase RIO1 (Homo sapiens) (UniProt Q9BRS2); conditions: Compound concentration 1000.0 nM
[31] = target: Serine/threonine-protein kinase Sgk2 (Homo sapiens) (UniProt Q9HBY8); conditions: Compound concentration 1000.0 nM
[32] = target: Mitogen-activated protein kinase kinase kinase 7 (Homo sapiens) (UniProt O43318); conditions: Compound concentration 1000.0 nM
[33] = target: Tyrosine-protein kinase receptor TYRO3 (Homo sapiens) (UniProt Q06418); conditions: Compound concentration 1000.0 nM
[34] = target: Serine/threonine-protein kinase WNK3 (Homo sapiens) (UniProt Q9BYP7); conditions: Compound concentration 1000.0 nM
[35] = target: Serine/threonine-protein kinase WNK4 (Homo sapiens) (UniProt Q96J92); conditions: Compound concentration 1000.0 nM
[36] = target: Tyrosine-protein kinase Yes (Homo sapiens) (UniProt P07947); conditions: Compound concentration 1000.0 nM
[37] = target: D(1B) dopamine receptor (Homo sapiens) (UniProt P21918); conditions: Compound concentration 10.0 uM
[38] = target: T1, Muscarinic acetylcholine receptor M4 (Homo sapiens); conditions: Compound concentration 10.0 uM

Chain of Serine/threonine-protein kinase haspin (Homo sapiens) (Q8TF76 whole entry): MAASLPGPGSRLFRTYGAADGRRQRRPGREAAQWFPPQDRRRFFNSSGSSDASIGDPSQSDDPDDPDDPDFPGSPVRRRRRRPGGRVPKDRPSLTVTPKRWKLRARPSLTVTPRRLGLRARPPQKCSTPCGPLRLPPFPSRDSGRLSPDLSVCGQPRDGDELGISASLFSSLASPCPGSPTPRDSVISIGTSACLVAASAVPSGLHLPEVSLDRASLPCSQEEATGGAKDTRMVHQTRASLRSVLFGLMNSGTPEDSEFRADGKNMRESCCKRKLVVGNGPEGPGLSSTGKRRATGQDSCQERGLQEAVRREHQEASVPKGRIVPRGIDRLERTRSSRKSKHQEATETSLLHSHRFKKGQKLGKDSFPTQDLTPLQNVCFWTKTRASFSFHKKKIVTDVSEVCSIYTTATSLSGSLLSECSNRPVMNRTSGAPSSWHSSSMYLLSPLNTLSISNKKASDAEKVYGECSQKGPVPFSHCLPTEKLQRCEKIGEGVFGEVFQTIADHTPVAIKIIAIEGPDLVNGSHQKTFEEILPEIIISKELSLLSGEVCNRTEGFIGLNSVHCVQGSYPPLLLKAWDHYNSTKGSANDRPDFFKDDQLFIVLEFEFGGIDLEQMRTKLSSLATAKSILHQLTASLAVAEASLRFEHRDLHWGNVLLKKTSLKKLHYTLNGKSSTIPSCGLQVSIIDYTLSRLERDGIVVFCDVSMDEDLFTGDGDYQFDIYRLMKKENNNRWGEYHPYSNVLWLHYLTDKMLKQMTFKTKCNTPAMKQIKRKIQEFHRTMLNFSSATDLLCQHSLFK
Chain of Ephrin type-A receptor 4 (Homo sapiens) (P54764 whole entry): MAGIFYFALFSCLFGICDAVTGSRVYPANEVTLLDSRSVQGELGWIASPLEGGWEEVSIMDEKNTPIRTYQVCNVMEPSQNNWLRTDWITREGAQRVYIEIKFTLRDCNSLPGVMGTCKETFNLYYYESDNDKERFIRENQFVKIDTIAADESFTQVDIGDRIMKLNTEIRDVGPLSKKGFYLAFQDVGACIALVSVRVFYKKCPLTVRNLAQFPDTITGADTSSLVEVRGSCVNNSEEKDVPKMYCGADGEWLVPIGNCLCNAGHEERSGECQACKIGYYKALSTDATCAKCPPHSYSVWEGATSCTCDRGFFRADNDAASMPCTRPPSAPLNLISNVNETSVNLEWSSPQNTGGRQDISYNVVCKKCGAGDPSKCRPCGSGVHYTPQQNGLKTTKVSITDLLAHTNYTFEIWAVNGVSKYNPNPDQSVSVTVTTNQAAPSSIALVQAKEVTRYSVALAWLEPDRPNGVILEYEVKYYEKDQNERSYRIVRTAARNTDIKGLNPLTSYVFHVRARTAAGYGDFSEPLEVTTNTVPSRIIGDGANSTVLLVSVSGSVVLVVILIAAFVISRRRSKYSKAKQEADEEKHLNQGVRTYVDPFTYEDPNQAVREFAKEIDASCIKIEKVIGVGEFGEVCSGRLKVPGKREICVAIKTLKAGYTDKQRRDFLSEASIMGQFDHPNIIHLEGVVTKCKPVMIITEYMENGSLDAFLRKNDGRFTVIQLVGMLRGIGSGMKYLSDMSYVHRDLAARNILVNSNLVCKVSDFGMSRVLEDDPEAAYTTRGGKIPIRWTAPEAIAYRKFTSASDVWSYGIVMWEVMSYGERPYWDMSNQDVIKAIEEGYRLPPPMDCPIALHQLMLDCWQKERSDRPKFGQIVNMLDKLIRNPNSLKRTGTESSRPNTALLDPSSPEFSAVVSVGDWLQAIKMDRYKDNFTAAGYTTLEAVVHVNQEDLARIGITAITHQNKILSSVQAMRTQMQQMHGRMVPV
Chain of Cyclin-dependent kinase 4 (Homo sapiens) (P11802 whole entry): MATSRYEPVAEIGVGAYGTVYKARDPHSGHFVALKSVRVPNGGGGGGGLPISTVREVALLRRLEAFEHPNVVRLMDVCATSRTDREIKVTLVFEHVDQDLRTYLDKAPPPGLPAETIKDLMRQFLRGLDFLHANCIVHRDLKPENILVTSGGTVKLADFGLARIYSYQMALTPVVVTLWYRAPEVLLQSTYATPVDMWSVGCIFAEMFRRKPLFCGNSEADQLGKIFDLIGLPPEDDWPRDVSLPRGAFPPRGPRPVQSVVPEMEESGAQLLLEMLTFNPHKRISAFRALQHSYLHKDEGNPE
Chain of RAC-beta serine/threonine-protein kinase (Homo sapiens) (P31751 whole entry): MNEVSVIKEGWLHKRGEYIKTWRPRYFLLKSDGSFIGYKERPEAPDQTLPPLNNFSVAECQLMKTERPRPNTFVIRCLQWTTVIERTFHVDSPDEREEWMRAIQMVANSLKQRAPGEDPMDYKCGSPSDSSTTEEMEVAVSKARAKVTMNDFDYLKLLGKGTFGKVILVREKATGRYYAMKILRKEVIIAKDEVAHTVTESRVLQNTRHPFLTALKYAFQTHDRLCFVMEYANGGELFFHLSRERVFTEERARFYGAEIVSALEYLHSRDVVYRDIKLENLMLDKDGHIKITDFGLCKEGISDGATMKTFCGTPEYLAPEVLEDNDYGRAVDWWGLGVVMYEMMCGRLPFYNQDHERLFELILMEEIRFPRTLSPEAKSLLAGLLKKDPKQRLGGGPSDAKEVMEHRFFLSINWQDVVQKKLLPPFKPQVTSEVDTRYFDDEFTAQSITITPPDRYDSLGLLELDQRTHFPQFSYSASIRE
Chain of Casein kinase II subunit alpha (Homo sapiens) (P68400 whole entry, looked up): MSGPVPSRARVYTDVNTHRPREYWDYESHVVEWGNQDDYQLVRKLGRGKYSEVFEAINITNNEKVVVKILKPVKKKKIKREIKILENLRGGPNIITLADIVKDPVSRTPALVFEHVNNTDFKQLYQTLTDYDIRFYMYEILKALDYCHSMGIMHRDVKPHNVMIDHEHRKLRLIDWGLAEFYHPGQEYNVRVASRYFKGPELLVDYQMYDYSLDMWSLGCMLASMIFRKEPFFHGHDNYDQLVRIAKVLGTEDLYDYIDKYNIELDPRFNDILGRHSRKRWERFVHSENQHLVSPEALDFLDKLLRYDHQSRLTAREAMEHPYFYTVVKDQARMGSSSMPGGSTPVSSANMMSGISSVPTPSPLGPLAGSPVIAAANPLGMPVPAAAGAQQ
Chain of Serine/threonine-protein kinase 26 (Homo sapiens) (Q9P289 2-416 limits assumed): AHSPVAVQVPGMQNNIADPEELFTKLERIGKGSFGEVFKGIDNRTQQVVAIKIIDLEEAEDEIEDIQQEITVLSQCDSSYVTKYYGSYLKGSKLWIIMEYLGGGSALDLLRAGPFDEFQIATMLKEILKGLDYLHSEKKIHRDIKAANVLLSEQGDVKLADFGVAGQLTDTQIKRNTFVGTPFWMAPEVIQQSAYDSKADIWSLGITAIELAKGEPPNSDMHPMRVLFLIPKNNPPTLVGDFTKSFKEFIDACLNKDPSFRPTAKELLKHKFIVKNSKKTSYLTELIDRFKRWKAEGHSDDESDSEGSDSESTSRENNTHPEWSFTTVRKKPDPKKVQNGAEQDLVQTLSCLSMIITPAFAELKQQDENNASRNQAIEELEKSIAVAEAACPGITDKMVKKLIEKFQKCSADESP
Chain of Cholecystokinin receptor type A (Homo sapiens) (P32238 whole entry): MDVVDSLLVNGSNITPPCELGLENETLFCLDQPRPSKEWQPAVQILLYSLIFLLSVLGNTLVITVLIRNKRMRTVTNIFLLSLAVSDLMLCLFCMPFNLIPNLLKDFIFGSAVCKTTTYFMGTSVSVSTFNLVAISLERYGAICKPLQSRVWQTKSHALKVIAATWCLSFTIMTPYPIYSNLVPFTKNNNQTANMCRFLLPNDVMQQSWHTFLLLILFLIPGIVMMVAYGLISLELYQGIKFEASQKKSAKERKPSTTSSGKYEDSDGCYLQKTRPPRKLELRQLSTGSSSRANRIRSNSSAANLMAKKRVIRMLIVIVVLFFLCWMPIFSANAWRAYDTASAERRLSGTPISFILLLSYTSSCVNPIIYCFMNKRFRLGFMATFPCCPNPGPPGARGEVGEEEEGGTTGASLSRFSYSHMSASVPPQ
Chain of Bone morphogenetic protein receptor type-1B (Homo sapiens) (O00238 whole entry): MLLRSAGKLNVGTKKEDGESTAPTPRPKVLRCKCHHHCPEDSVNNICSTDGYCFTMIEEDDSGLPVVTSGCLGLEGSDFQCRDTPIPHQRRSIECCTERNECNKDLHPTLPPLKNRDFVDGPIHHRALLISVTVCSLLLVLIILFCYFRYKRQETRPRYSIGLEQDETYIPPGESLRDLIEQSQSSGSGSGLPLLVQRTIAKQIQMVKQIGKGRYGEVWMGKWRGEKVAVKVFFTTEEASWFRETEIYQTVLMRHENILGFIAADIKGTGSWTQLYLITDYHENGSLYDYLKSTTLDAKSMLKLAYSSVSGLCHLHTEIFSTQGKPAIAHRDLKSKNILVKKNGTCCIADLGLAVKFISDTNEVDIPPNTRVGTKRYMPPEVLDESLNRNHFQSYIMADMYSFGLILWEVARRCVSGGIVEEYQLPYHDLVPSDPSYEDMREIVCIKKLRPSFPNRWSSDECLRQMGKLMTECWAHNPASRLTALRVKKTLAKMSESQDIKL
Chain of Serine/threonine-protein kinase Chk2 (Homo sapiens) (O96017 whole entry): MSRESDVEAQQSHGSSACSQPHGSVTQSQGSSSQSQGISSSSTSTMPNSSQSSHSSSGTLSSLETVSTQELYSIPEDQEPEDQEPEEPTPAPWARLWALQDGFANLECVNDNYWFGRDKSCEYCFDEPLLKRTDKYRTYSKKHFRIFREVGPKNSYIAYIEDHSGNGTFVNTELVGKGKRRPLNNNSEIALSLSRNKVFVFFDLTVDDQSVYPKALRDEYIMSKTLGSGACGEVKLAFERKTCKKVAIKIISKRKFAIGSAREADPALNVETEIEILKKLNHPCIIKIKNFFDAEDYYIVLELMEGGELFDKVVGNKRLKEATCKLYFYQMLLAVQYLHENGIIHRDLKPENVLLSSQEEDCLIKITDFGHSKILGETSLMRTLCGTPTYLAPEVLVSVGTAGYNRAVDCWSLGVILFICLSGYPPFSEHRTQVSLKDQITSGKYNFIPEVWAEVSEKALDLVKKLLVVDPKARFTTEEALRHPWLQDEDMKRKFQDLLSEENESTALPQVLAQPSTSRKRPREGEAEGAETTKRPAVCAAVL

Compound	% Inhibition of Control Specific Binding (Mean n=2) [1]	% Inhibition of Control Specific Binding (Mean n=2) [2]	% Inhibition of Control Specific Binding (Mean n=2) [3]	residual activity [4]	residual activity [5]	residual activity [6]	residual activity [7]	residual activity [8]	residual activity [9]	residual activity [10]	residual activity [11]	residual activity [12]	residual activity [13]	residual activity [14]	residual activity [15]	residual activity [16]	residual activity [17]	residual activity [18]	residual activity [19]	residual activity [20]	also measured
COc1ccc2c(c1)O[C@H](c1ccc(OC)c(OC)c1)C[C@@H]2NC(=O)C1(c2ccc3c(c2)OC(F)(F)O3)CC1 [A-1596584]	-38.6%	-3.9%	4%	93%	96%	98%	100%	100%	100%	85%	94%	100%	83%	100%	100%	100%	100%	100%	91%	100%	residual activity [21]: 100%; residual activity [22]: 72%; residual activity [23]: 100%; residual activity [24]: 91%; residual activity [25]: 89%; residual activity [26]: 84%; residual activity [27]: 100%; residual activity [28]: 39%; residual activity [29]: 100%; residual activity [30]: 100%; residual activity [31]: 100%; residual activity [32]: 100%; residual activity [33]: 97%; residual activity [34]: 100%; residual activity [35]: 83%; residual activity [36]: 97%; inhibition [37]: 20%; inhibition [38]: 0.59%
COc1ccc2c(c1)O[C@@H](c1ccc(OC)c(OC)c1)C[C@H]2NC(=O)C1(c2ccc3c(c2)OC(F)(F)O3)CC1 [A-1596586]	-51.6%	6.1%	-6.1%	75%	100%	100%	71%	84%	91%	100%	93%	95%	82%	100%	84%	100%	94%	87%	100%	100%	residual activity [21]: 100%; residual activity [22]: 65%; residual activity [23]: 100%; residual activity [24]: 81%; residual activity [25]: 95%; residual activity [26]: 75%; residual activity [27]: 97%; residual activity [28]: 100%; residual activity [29]: 92%; residual activity [30]: 100%; residual activity [31]: 94%; residual activity [32]: 100%; residual activity [33]: 97%; residual activity [34]: 100%; residual activity [35]: 85%; residual activity [36]: 100%; inhibition [37]: 20.7%; inhibition [38]: -2.72%

— ChEMBL document CHEMBL4507262, “Data for DCP probe A-1596586” (2021)
